In one test the test system is reactive oxygen species. The test is described as follows: Oxidative stress level (ROS) in the cerebral cortex of LPS-treated mice. The class given is in vivo. The settings on record: cerebral cortex sampled Day 6; oral gavage 0.02 mL/10 g daily Days 1-5; LPS 1 mg/kg intraperitoneally Days 3, 4, 5. The protocol:
(§1) The antidepressant effect of the composition was evaluated through the forced swim test in mice and measurement of oxidative stress levels in the cerebral cortex. Specific procedures were as follows:
(§2) Mice aged 8-9 weeks were selected as test subjects (10 mice per composition group for differential analysis and multiple comparisons; in differential analysis, * denoted p<0.05, ** p<0.01, *** p<0.001). The neural repair compositions prepared in the above examples and comparative examples were administered to mice via oral gavage. A positive control group treated with lipopolysaccharide (LPS) and a blank control group treated with physiological saline were included. From Days 1-5, mice were orally gavaged daily at the same time with 0.02 mL (normalized to body weight)/10 g of the compositions. On Days 3, 4, and 5, LPS (1 mg/kg) was intraperitoneally administered alongside the compositions. The positive control group differed by receiving only LPS (1 mg/kg) on Days 3, 4, and 5, while the blank control group received physiological saline throughout Days 1-5. On Day 6, behavioral tests (immobility time in the forced swim test, in s) and tissue sampling for oxidative stress assessment (reactive oxygen species absorption levels, expressed as absorbance) were conducted. The results are detailed in FIG. *to FIG. 2 and Tables 1-2.

The test system of a further test is mice. The test is described as follows: Forced swim test in LPS-treated mice (improvement of depression). It counts as in vivo. The conditions noted are these: forced swim test on Day 6; oral gavage 0.02 mL/10 g daily Days 1-5; LPS 1 mg/kg intraperitoneally Days 3, 4, 5; 10 mice per group. The procedure:
as §1, §2

Consider lipopolysaccharide [LPS], for which the ROS absorption level in the test with reactive oxygen species is on record as 0.47 ± 0.10 absorbance. The “Immobility time of mice” value in the test on mice came out at 230 ± 26 s.
